Experimental data taken from patent publication US20220110917A1 (priority 2018, published 2022).

Assays:
[1] = human, in vivo, po
[2] = in vivo, po
[3] = oral administration in suspension; cited from earlier work
[4] = in vivo; cited from earlier work

Oc1noc2c1CCNC2 [gaboxadol, 4,5,6,7-tetrahydroisoxazolo [5,4-c] pyridine-3-ol]
AUC0-∞ Slope (90% CI), dose proportionality [1]: 0.98 (0.95, 1.01)
Cmax Slope (90% CI), dose proportionality [1]: 0.95 (0.88, 1.02)
residual effect on Choice Reaction Time [2]: did not show residual effect
residual effect on Critical Flicker Fusion [2]: did not show residual effect
residual effects on Body Sway [2]: did not show any signs of residual effects
residual effects on Digit symbol substitution test (DSST) [2]: did not show any signs of residual effects
residual effects on Leeds Sleep Evaluation Questionnaire [2]: did not show any signs of residual effects
residual effects on Memory tests [2]: did not show any signs of residual effects
residual effects on Multiple Sleep Latency Test (MSLT) [2]: did not show any signs of residual effects
residual effects on Tracking [2]: did not show any signs of residual effects

CC(=O)[C@H]1CC[C@H]2[C@@H]3CC[C@H]4C[C@](C)(O)CC[C@]4(C)[C@H]3CC[C@]12C [ganaxolone]
Tmax [3]: 1.2 to 2.5 h
plasma half-life [3]: approximately 20 h

CCN(CC)CCN1C(=O)CN=C(c2ccccc2F)c2cc(Cl)ccc21 [Flurazepam]
residual effect on Choice Reaction Time [2]: showed significant effect
residual effect on Critical Flicker Fusion [2]: showed significant effect

CC(=O)[C@H]1CC[C@H]2[C@@H]3CC[C@H]4C[C@H](O)CC[C@]4(C)[C@H]3CC[C@]12C [allopregnanolone, 3α, 5α-tetrahydroprogesterone]
half-life [4]: about 35 minutes
